# Literature values, collected in US20070293479A1, “OLANZAPINE PHARMACEUTICAL COMPOSITION” (priority 2006, published 2007).
# Details: free base, at pH 6.8
structure (smiles),measurement,value
Cc1cc2c(s1)Nc1ccccc1N=C2N1CCN(C)CC1 [Olanzapine],solubility,about 0.02 mg/ml
